# Patent US5225410A, “Triazolyl hydrazide derivatives” (Egis Gyogyszergyar, priority 1989, dated 1993)
# Tests used:
# [1] = test system: Gastric-secretion and ulcus; assay: Stomach-secretion and ulcus tests (pylorus ligature); format: in vivo, Wistar rats; conditions: 3 hours before operation
# Protocol: Method: Shay, H., Komarov, S. A., Fels. S. S., Meranze, D., Gruenstein, M., Siplet, H.: Gastroenterology 5, 45 (1945); Adami, E., Marazzi-Ubertti, E., Tirba, C.: Arch. Int. Pharmacodyn. 147, 113 (1964)
# Starved wistar […] of 150-250 g body weight were used, 4 male and 4 female animals for each dose. On the day of the experiment the pylorus of the animals was ligatured under ether narcosis. The doses of the test compounds were administered per os, 3 hours before the operation. The control groups were treated with the carrier in identical way. 4 hours after the operation the animals were over-narcotized with ether, their stomach was removed, the stomach contents were separated and after centrifugation the volume of the gastric juices was measured, then their free-acid content and total acidity, resp., were determined by titration with 0.1N NaOH solution. The changes of the gastric mucous membrane were investigated macroscopically and characterized by an ulcus index determined with the aid of the punctuation method of Adami and coworkers.
# Acute toxicity on mice = conditions: mouse, in vivo, po, observed 14 days
# Protocol: Method: Litchfield, J. T., Wilcoxon, F. W.: Pharmacol. Exp. Ther., 96, 99 (1949)
# White mice belonging to the CFLP strain (body weight 18 to 22 g, both male and female) were used, 6 animals for each dose. The test compounds were administered orally in a volume of 20 ml/kg. […] The mice were kept in a plastic cage at room temperature. The animals get tap water and standard mouse fodder ad libitum. The toxicity data were determined with the aid of the method of Litchfield and Wilcoxon.
# mice = format: in vivo; conditions: p.o., motility inhibiting effect
# Protocol: Method: Borsy, J., Csanyi, E., Lazar, I.: Arch. Int. Pharmacodyn. 124, 1-2 (1960)
# The tests were performed on mice. Groups consisting of 3 mice each were trated perorally with different doses of the compounds to be tested. One hour after the administration the test animals were placed in a Dews equipment. In this equipment the number of interruptions of infrared beam within 30 minutes was counted.
# Pseudomonas aeruginosa = assay: Antimicrobial effect, agar diffusion method; format: cell-based; conditions: HNCMB 170006; 500/μg/hole
# Source text: (§1) In addition, the compounds according to the invention posses valuable antimicrobial effect, especially against nonfermenting Gram-negative bacteria strains.
# Salmonella enteritidus = assay: Antimicrobial effect, agar diffusion method; format: cell-based; conditions: HNCMB 10091; 500/μg/hole
# Source text: as §1
# Pseudomonas stutzeri = assay: Antimicrobial effect, agar diffusion method; format: cell-based; conditions: HNCMB 173008; 500/μg/hole
# Source text: as §1
# Alcaligenea faecalis = assay: Antimicrobial effect, agar diffusion method; format: cell-based; conditions: HNCMB 140001; 500/μg/hole
# Source text: as §1
# [2] = test system: Acinetobacter calcoaceticus; assay: Antimicrobial effect, agar diffusion method; format: cell-based; conditions: HNCMB 150001; 500/μg/hole
# Source text: as §1
# Shigella sonnei = assay: Antimicrobial effect, agar diffusion method; format: cell-based; conditions: HNCMB 20046; 500/μg/hole
# Source text: as §1
# [3] = test system: experimental coronaria insufficiency; assay: Antianginal effect (vasopressin-induced experimental coronaria insufficiency, ECG wave T); format: in vivo; conditions: Rattus norvegicus; rats, iv., 2 minutes prior to vasopressin
# Protocol: The test was carried out on rats weighing 180 to 220 g. The animals were narcotised with chloralese-urethane (70-700 mg/kg ip.). The ECG was registered with needle electrodes in standard II leading. The experimental coronaria insufficiency was induced with vasopressin (1 NE/kg i.v.). The height of wave T was measured before and after the administration of vasopressin in both the control and treated groups.
smiles,measurement,setting,value
"CN/C(=N/CCSCc1nc[nH]c1C)NC#N [Cimetidine, reference compound]","Inhibition related to the control in %, free acid",[1]; 50 mg/kg po.,24%
same,"Inhibition related to the control in %, gastric juice",[1]; 50 mg/kg po.,22%
same,"Inhibition related to the control in %, total acidity",[1]; 50 mg/kg po.,15%
same,"Inhibition related to the control in %, ulcus index",[1]; 50 mg/kg po.,18%
same,"Inhibition related to the control in %, free acid",[1]; 200 mg/kg po.,91%
same,"Inhibition related to the control in %, gastric juice",[1]; 200 mg/kg po.,59%
same,"Inhibition related to the control in %, total acidity",[1]; 200 mg/kg po.,71%
same,"Inhibition related to the control in %, ulcus index",[1]; 200 mg/kg po.,72%
"CN(N)C(=S)n1nc(N2CCOCC2)nc1N [Example 1, 1-(5-Amino-3-morpholino-1H-1,2,4-triazol-1-yl)-N-methyl-carbothiohydrazide]",LD50 at 336 h,Acute toxicity on mice,> 1000 mg/kg
same,Therapeutical index,mice,> 10
"CSc1nc(N)n(C(=S)N(C)N)n1 [Example 4, 1-(5-Amino-3-methylthio-1H-1,2,4-triazol-1-yl)-N-methyl-carbothiohydrazide]",LD50 at 336 h,Acute toxicity on mice,300 mg/kg
same,"Inhibition related to the control in %, free acid",[1]; 60 mg/kg po.,60%
same,"Inhibition related to the control in %, gastric juice",[1]; 60 mg/kg po.,41%
same,"Inhibition related to the control in %, total acidity",[1]; 60 mg/kg po.,50%
same,"Inhibition related to the control in %, ulcus index",[1]; 60 mg/kg po.,67%
CN1CCN(c2nc(N)n(C(=S)N(C)N)n2)CC1 [Example 9],LD50 at 336 h,Acute toxicity on mice,1000 mg/kg
same,Inhibition (%),Pseudomonas aeruginosa,14%
same,Inhibition (%),Salmonella enteritidus,17%
same,Inhibition (%),Pseudomonas stutzeri,25%
same,Inhibition (%),Alcaligenea faecalis,23%
same,Inhibition (%),[2],20%
same,Inhibition (%),Shigella sonnei,19%
"NNC(=S)n1nc(N2CCOCC2)nc1N [Example 16, 1-(5-Amino-3-morpholino-1H-1,2,4-triazol-1-yl)carbothiohydrazide]",LD50 at 336 h,Acute toxicity on mice,1000 mg/kg
same,ED50,[3],0.7 mg/kg
"CSc1nc(N)n(C(=S)NN)n1 [Example 17, 1-(5-Amino-3-methylthio-1H-1,2,4-triazol-1-yl)carbothiohydrazide]",LD50 at 336 h,Acute toxicity on mice,350 mg/kg
same,Therapeutical index,mice,~ 5
same,ED50,[3],0.84 mg/kg
"CNN(C)C(=S)n1nc(N2CCOCC2)nc1N [Example 20, 1-(5-Amino-3-morpholino-1H-1,2,4-triazol-1-yl)-N,N'-dimethyl-carbothiohydrazide]",LD50 at 336 h,Acute toxicity on mice,1000 mg/kg
same,"Inhibition related to the control in %, free acid",[1]; 50 mg/kg po.,46%
same,"Inhibition related to the control in %, gastric juice",[1]; 50 mg/kg po.,36%
same,"Inhibition related to the control in %, total acidity",[1]; 50 mg/kg po.,36%
same,"Inhibition related to the control in %, ulcus index",[1]; 50 mg/kg po.,39%
same,"Inhibition related to the control in %, free acid",[1]; 200 mg/kg po.,91%
same,"Inhibition related to the control in %, gastric juice",[1]; 200 mg/kg po.,58%
same,"Inhibition related to the control in %, total acidity",[1]; 200 mg/kg po.,78%
same,"Inhibition related to the control in %, ulcus index",[1]; 200 mg/kg po.,70%
"CCCC(C)(COC(N)=O)COC(N)=O [Meprobamate, reference compound]",Therapeutical index,mice,4.1
"CC(Cc1ccccc1)NCCC(c1ccccc1)c1ccccc1 (centres unmarked) [Prenylamine, reference compound]",ED50,[3],6.5 mg/kg
